Experimental data: the supplement of paper PMC10307832

Tests used:
Assay in all cases: relative viability (nuclei count vs DMSO), 5 days (fraction); higher = more cells survive
LXF-289 = test system: LXF-289
Outline: (§1)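 Lung cancer cell lines were seeded in 1536-well plates and dosed by pin tool the next day, with either a single drug or a fixed anchor-drug dose combined with five library-drug doses (not always all listed) spaced in √10 steps. Five days later, one step fixed the cells and stained their nuclei (final 0.05% Triton X-100, 1% formaldehyde, 1 ug/ml Hoechst), and nuclei were counted on 4× images. Relative viability is the nuclei count in treated wells divided by the count in vehicle wells, and each value is the median of duplicate plates.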

NCI-H1915 = test system: NCI-H1915
Outline: as §1

NCI-H1944 = test system: NCI-H1944
Outline: as §1

NCI-H441 = test system: NCI-H441
Outline: as §1

NCI-H1755 = test system: NCI-H1755
Outline: as §1

LU99A = test system: LU99A
Outline: as §1

PC-3 [JPC-3] = test system: PC-3 [JPC-3]
Outline: as §1

NCI-H650 = test system: NCI-H650
Outline: as §1

BEN = test system: BEN
Outline: as §1

LCLC-97TM1 = test system: LCLC-97TM1
Outline: as §1

NCI-H2170 = test system: NCI-H2170
Outline: as §1

LOU-NH91 = test system: LOU-NH91
Outline: as §1

NCI-H460 = test system: NCI-H460
Outline: as §1

SK-LU-1 = test system: SK-LU-1
Outline: as §1

NCI-H2126 = test system: NCI-H2126
Outline: as §1

NCI-H1666 = test system: NCI-H1666
Outline: as §1

A-427 = test system: A-427
Outline: as §1

NCI-H2023 = test system: NCI-H2023
Outline: as §1

NCI-H23 = test system: NCI-H23
Outline: as §1

NCI-H322M = test system: NCI-H322M
Outline: as §1

HARA = test system: HARA
Outline: as §1

O=c1[nH]c2ccccc2n1C1CCN(CCCC(c2ccc(F)cc2)c2ccc(F)cc2)CC1 [Pimozide] + C[C@@H](Oc1cc(-c2cnn(C3CCNCC3)c2)cnc1N)c1c(Cl)ccc(F)c1Cl [Crizotinib] (partner 1 µM)
relative viability (LXF-289; first compound 0.08 µM): 0.791
relative viability (LXF-289; first compound 0.253 µM): 0.775
relative viability (LXF-289; first compound 0.8 µM): 0.79
relative viability (LXF-289; first compound 2.53 µM): 0.774
relative viability (LXF-289; first compound 8 µM): 0.709
relative viability (NCI-H1915; first compound 0.08 µM): 0.971
relative viability (NCI-H1915; first compound 0.253 µM): 0.863
relative viability (NCI-H1915; first compound 0.8 µM): 0.709
relative viability (NCI-H1915; first compound 2.53 µM): 0.863
relative viability (NCI-H1915; first compound 8 µM): 0.784
relative viability (NCI-H1944; first compound 0.08 µM): 0.992
relative viability (NCI-H1944; first compound 0.253 µM): 1.03
relative viability (NCI-H1944; first compound 0.8 µM): 1.05
relative viability (NCI-H1944; first compound 2.53 µM): 0.967
relative viability (NCI-H1944; first compound 8 µM): 0.939
relative viability (NCI-H441; first compound 0.08 µM): 0.608
relative viability (NCI-H441; first compound 0.253 µM): 0.646
relative viability (NCI-H441; first compound 0.8 µM): 0.652
relative viability (NCI-H441; first compound 2.53 µM): 0.568
relative viability (NCI-H441; first compound 8 µM): 0.693
relative viability (NCI-H1755; first compound 0.08 µM): 0.881
relative viability (NCI-H1755; first compound 0.253 µM): 0.845
relative viability (NCI-H1755; first compound 0.8 µM): 0.794
relative viability (NCI-H1755; first compound 2.53 µM): 0.792
relative viability (NCI-H1755; first compound 8 µM): 0.697
relative viability (LU99A; first compound 0.08 µM): 0.497
relative viability (LU99A; first compound 0.253 µM): 0.521
relative viability (LU99A; first compound 0.8 µM): 0.548
relative viability (LU99A; first compound 2.53 µM): 0.612
relative viability (LU99A; first compound 8 µM): 0.61
relative viability (PC-3 [JPC-3]; first compound 0.253 µM): 0.878
relative viability (PC-3 [JPC-3]; first compound 0.8 µM): 0.91
relative viability (PC-3 [JPC-3]; first compound 2.53 µM): 0.915
relative viability (PC-3 [JPC-3]; first compound 8 µM): 0.854
relative viability (NCI-H650; first compound 0.08 µM): 0.707
relative viability (NCI-H650; first compound 0.253 µM): 0.711
relative viability (NCI-H650; first compound 0.8 µM): 0.74
relative viability (NCI-H650; first compound 2.53 µM): 0.633
relative viability (NCI-H650; first compound 8 µM): 0.802
relative viability (BEN; first compound 0.08 µM): 1.01
relative viability (BEN; first compound 0.253 µM): 0.913
relative viability (BEN; first compound 0.8 µM): 0.846
relative viability (BEN; first compound 2.53 µM): 0.697
relative viability (BEN; first compound 8 µM): 0.969
relative viability (LCLC-97TM1; first compound 0.08 µM): 0.337
relative viability (LCLC-97TM1; first compound 0.253 µM): 0.356
relative viability (LCLC-97TM1; first compound 0.8 µM): 0.296
relative viability (LCLC-97TM1; first compound 2.53 µM): 0.424
relative viability (LCLC-97TM1; first compound 8 µM): 0.413
relative viability (NCI-H2170; first compound 0.08 µM): 1.03
relative viability (NCI-H2170; first compound 0.253 µM): 1.14
relative viability (NCI-H2170; first compound 0.8 µM): 1.06
relative viability (NCI-H2170; first compound 2.53 µM): 1.22
relative viability (NCI-H2170; first compound 8 µM): 1.07
relative viability (LOU-NH91; first compound 0.08 µM): 0.52
relative viability (LOU-NH91; first compound 0.253 µM): 0.733
relative viability (LOU-NH91; first compound 0.8 µM): 0.73
relative viability (LOU-NH91; first compound 2.53 µM): 0.759
relative viability (LOU-NH91; first compound 8 µM): 0.581
relative viability (NCI-H460; first compound 0.08 µM): 0.841
relative viability (NCI-H460; first compound 0.253 µM): 0.671
relative viability (NCI-H460; first compound 0.8 µM): 0.899
relative viability (NCI-H460; first compound 2.53 µM): 0.871
relative viability (NCI-H460; first compound 8 µM): 0.89
relative viability (SK-LU-1; first compound 0.08 µM): 0.895
relative viability (SK-LU-1; first compound 0.253 µM): 0.792
relative viability (SK-LU-1; first compound 0.8 µM): 0.912
relative viability (SK-LU-1; first compound 2.53 µM): 0.786
relative viability (SK-LU-1; first compound 8 µM): 0.769
relative viability (NCI-H2126; first compound 0.08 µM): 1.06
relative viability (NCI-H2126; first compound 0.253 µM): 0.976
relative viability (NCI-H2126; first compound 0.8 µM): 0.976
relative viability (NCI-H2126; first compound 2.53 µM): 1.02
relative viability (NCI-H2126; first compound 8 µM): 1
relative viability (NCI-H1666; first compound 0.08 µM): 0.882
relative viability (NCI-H1666; first compound 0.253 µM): 0.913
relative viability (NCI-H1666; first compound 0.8 µM): 1.02
relative viability (NCI-H1666; first compound 2.53 µM): 0.751
relative viability (NCI-H1666; first compound 8 µM): 0.789
relative viability (A-427; first compound 0.08 µM): 0.802
relative viability (A-427; first compound 0.253 µM): 0.839
relative viability (A-427; first compound 0.8 µM): 0.896
relative viability (A-427; first compound 2.53 µM): 0.845
relative viability (A-427; first compound 8 µM): 0.878
relative viability (NCI-H2023; first compound 0.08 µM): 0.539
relative viability (NCI-H2023; first compound 0.253 µM): 0.615
relative viability (NCI-H2023; first compound 0.8 µM): 0.742
relative viability (NCI-H2023; first compound 2.53 µM): 0.524
relative viability (NCI-H2023; first compound 8 µM): 0.522
relative viability (NCI-H23; first compound 0.08 µM): 0.625
relative viability (NCI-H23; first compound 0.253 µM): 0.482
relative viability (NCI-H23; first compound 0.8 µM): 0.517
relative viability (NCI-H23; first compound 2.53 µM): 0.573
relative viability (NCI-H23; first compound 8 µM): 0.524
relative viability (NCI-H322M; first compound 0.253 µM): 0.805
relative viability (NCI-H322M; first compound 0.8 µM): 0.846
relative viability (NCI-H322M; first compound 2.53 µM): 0.832
relative viability (NCI-H322M; first compound 8 µM): 0.943
relative viability (HARA; first compound 0.08 µM): 0.991
relative viability (HARA; first compound 0.253 µM): 1.07
relative viability (HARA; first compound 0.8 µM): 1.01
relative viability (HARA; first compound 2.53 µM): 0.927
relative viability (HARA; first compound 8 µM): 0.961
